Where two headings read alike, the source gives them in different places.
Experiments:
[1] = tested on: SW1573; conditions: Canon et al., Nature 575:217-223 (2019); cited from earlier work
[2] = tested on: NCI-H358 KRASG12C xenograft; assay: In vivo NSCLC K-Ras G12C xenograft model (tumor growth); design: species or system BALB/c nude mice
[3] = tested on: NSCLC (KRAS G12C) model; assay: NSCLC (KRAS G12C) xenograft model, combinations; assay type: in vivo, mice
[4] = single agents: Compound B 50 mg/kg intravenous twice weekly, cobimetinib […] daily oral

`CCn1c(-c2ccccc2COC)c2c3cc(ccc31)-c1cc(cc([N+](=O)[O-])c1)C[C@H](NC(=O)OC(C)(C)C)C(=O)N1CCC[C@H](N1)C(=O)OCC(C)(C)C2` gave a ring closure, yield of all isomers (from CCn1c(-c2ccccc2COC)c(CC(C)(C)CO)c2cc(-c3cc(C[C@H](NC(=O)OC(C)(C)C)C(=O)N4CCC[C@@H](C(=O)O)N4)cc([N+](=O)[O-])c3)ccc21, ester bond, EDCI/HOBt/DIPEA, DCM, 6.4 mM, 25.0 °C, 16.0 h) of 73%.
Work on `CCn1c(-c2cccnc2[C@H](C)OC)c2c3cc(ccc31)-c1cc(cc(C(F)F)c1)C[C@H](NC(=O)OC(C)(C)C)C(=O)N1CCC[C@H](N1)C(=O)OCC(C)(C)C2` yielded a ring closure, yield of all isomers (from CCn1c(-c2cccnc2[C@H](C)OC)c(CC(C)(C)CO)c2cc(-c3cc(C[C@H](NC(=O)OC(C)(C)C)C(=O)N4CCC[C@@H](C(=O)O)N4)cc(C(F)F)c3)ccc21, ester bond, EDCI/HOBt/DIPEA, DCM, 16.0 h) of 51%.
In the case of `CCn1c(-c2cccnc2[C@H](C)OC)c2c3cc(ccc31)-c1cc(cc(O[Si](C(C)C)(C(C)C)C(C)C)c1)C[C@H](NC(=O)OC(C)(C)C)C(=O)N1CCC[C@H](N1)C(=O)OCC(C)(C)C2`, the ring closure, yield of all isomers (from CCn1c(-c2cccnc2[C@H](C)OC)c(CC(C)(C)CO)c2cc(-c3cc(C[C@H](NC(=O)OC(C)(C)C)C(=O)N4CCC[C@@H](C(=O)O)N4)cc(O[Si](C(C)C)(C(C)C)C(C)C)c3)ccc21, ester bond, EDCI/HOBt/DIPEA, DCM, 15.3 mM, 25.0 °C, 16.0 h) is reported as 42%.
With `CCn1c(-c2cccnc2[C@H](C)OC)c2c3cc(ccc31)-c1nc(co1)C[C@H](NC(=O)OC(C)(C)C)C(=O)N1CCC[C@H](N1)C(=O)OCC(C)(C)C2` the ring closure, yield of all isomers (from CCn1c(-c2cccnc2[C@H](C)OC)c(CC(C)(C)COC(=O)[C@@H]2CCCN(C(=O)[C@H](Cc3coc(Br)n3)NC(=O)OC(C)(C)C)N2)c2cc(B3OC(C)(C)C(C)(C)O3)ccc21, cc_pd bond, XPhos Pd G3, dioxane, […], 70.0 °C, 4.0 h) was 56%.
Work on `CCn1c(-c2cccnc2[C@H](C)OC)c2c3cc(ccc31)-c1nc(nn1C)C[C@H](NC(=O)OC(C)(C)C)C(=O)N1CCC[C@H](N1)C(=O)OCC(C)(C)C2` yielded a ring closure, yield of all isomers (from CCn1c(-c2cccnc2[C@H](C)OC)c(CC(C)(C)COC(=O)[C@@H]2CCCN(C(=O)[C@H](Cc3nc(Br)n(C)n3)NC(=O)OC(C)(C)C)N2)c2cc(B3OC(C)(C)C(C)(C)O3)ccc21, cc_pd bond, XPhos Pd G3, dioxane, 71.7 mM, 75.0 °C, 3.0 h) of 56.8%.
With `CCn1c(-c2cccnc2[C@H](C)OC)c2c3cc(ccc31)-c1cnc(o1)C[C@H](NC(=O)OC(C)(C)C)C(=O)N1CCC[C@H](N1)C(=O)OCC(C)(C)C2` the ring closure, yield of all isomers (from CCn1c(-c2cccnc2[C@H](C)OC)c(CC(C)(C)CO)c2cc(-c3cnc(C[C@H](NC(=O)OC(C)(C)C)C(=O)N4CCC[C@@H](C(=O)O)N4)o3)ccc21, ester bond, EDCI/HOBt, DIPEA, DCM, 13.7 mM, 0.0 °C, 2.0 h) was 56.4%.
With `CCn1c(-c2cccnc2[C@H](C)OC)c2c3cc(ccc31)N1CCC[C@@H](C[C@H](NC(=O)OCc3ccccc3)C(=O)N3CCC[C@H](N3)C(=O)OCC(C)(C)C2)C1` the ring closure, yield of all isomers (from CCn1c(-c2cccnc2[C@H](C)OC)c(CC(C)(C)CO)c2cc(N3CCC[C@@H](C[C@H](NC(=O)OCc4ccccc4)C(=O)N4CCC[C@@H](C(=O)O)N4)C3)ccc21, ester bond, EDCI/HOBt/DIPEA, DCM, 36.7 mM, 25.0 °C, 6.0 h) was 36%.
`CCn1c(-c2cccnc2[C@H](C)OC)c2c3cc(ccc31)N1CCO[C@@H](C[C@H](NC(=O)OCc3ccccc3)C(=O)N3CCC[C@H](N3)C(=O)OCC(C)(C)C2)C1` showed a ring closure, yield of all isomers (from CCn1c(-c2cccnc2[C@H](C)OC)c(CC(C)(C)CO)c2cc(N3CCO[C@@H](C[C@H](NC(=O)OCc4ccccc4)C(=O)N4CCC[C@@H](C(=O)O)N4)C3)ccc21, ester bond, EDCI/HOBt/DIPEA, DCM, 12.75 mM, 25.0 °C, 16.0 h) of 66%.
`CCn1c(-c2cccnc2[C@H](C)OC)c2c3nc(ccc31)-c1csc(n1)C[C@H](NC(=O)OC(C)(C)C)C(=O)N1CCC[C@H](N1)C(=O)OCC(C)(C)C2` showed a ring closure, yield of all isomers (from CCn1c(-c2cccnc2[C@H](C)OC)c(CC(C)(C)CO)c2nc(-c3csc(C[C@H](NC(=O)OC(C)(C)C)C(=O)N4CCC[C@@H](C(=O)O)N4)n3)ccc21, ester bond, EDCI HCl/HOBt/DIPEA, DCM, 6.4 mM, 25.0 °C, 16.0 h) of 43%.
`CO[C@@H](C)c1ncc(N2CCN(C(=O)OCc3ccccc3)CC2)cc1-c1c2c3cc(ccc3n1CC(F)(F)F)-c1cccc(c1)C[C@H](NC(=O)OC(C)(C)C)C(=O)N1CCC[C@H](N1)C(=O)OCC(C)(C)C2` gave a ring closure, yield of all isomers (from CO[C@@H](C)c1ncc(N2CCN(C(=O)OCc3ccccc3)CC2)cc1-c1c(CC(C)(C)CO)c2cc(-c3cccc(C[C@H](NC(=O)OC(C)(C)C)C(=O)N4CCC[C@@H](C(=O)O)N4)c3)ccc2n1CC(F)(F)F, ester bond, EDCI/HOBt/DIPEA, DCM, 9.87 mM, 25.0 °C, 12.0 h) of 67.9%.
`CO[C@@H](C)c1ncccc1-c1c2c3cc(ccc3n1CC(F)(F)F)N1CCO[C@@H](C[C@H](NC(=O)OCc3ccccc3)C(=O)N3CCC[C@H](N3)C(=O)OCC(C)(C)C2)C1` showed a ring closure, yield of all isomers (from CO[C@@H](C)c1ncccc1-c1c(CC(C)(C)CO)c2cc(N3CCO[C@@H](C[C@H](NC(=O)OCc4ccccc4)C(=O)N4CCC[C@@H](C(=O)O)N4)C3)ccc2n1CC(F)(F)F, ester bond, EDCI/HOBt/DIPEA, DCM, 11.25 mM, 16.0 h) of 74%.
For `C=CC(=O)N1CCN(c2nc(=O)n(-c3c(C)ccnc3C(C)C)c3nc(-c4c(O)cccc4F)c(F)cc23)[C@@H](C)C1` [AMG510], the “sensitivity of cell line” value [1] is given as “insensitive”.
With `Cc1nc(N2CCC3(CC2)CO[C@@H](C)[C@H]3N)c(CO)nc1-c1cccc(Cl)c1Cl` [RMC-4550] the “mice with tumor regression (greater than 10% reduction of tumor volume at end of study)” value ([2]; single agents: Compound C 60 mg/kg intravenous once weekly, SHP2 inhibitor (RMC-4550) 30 mg/kg daily oral) was 5 out of 10.
For `O=C(c1ccc(F)c(F)c1Nc1ccc(I)cc1F)N1CC(O)([C@@H]2CCCCN2)C1` [cobimetinib], the “effect on tumor growth” value [2, 4] was “tumor growth inhibition”, the “mice with tumor regression (greater than 10% reduction of tumor volume at end of study)” value [2, 4] was “no tumor regressions” and the “tumor response, single agent (FIG. 3A)” value ([3]; Compound B 50 mg/kg intermittent intravenous or cobimetinib […] daily oral, alone) was “tumor growth inhibition”. The “tumor regressions at end of study, single agent group (FIG. 3B)” value ([3]; each single agent) was “no tumor regressions”.

From EP4806900A2, “RAS INHIBITORS” (Revolution Medicines, Inc., priority 2019, dated 2021)
